Source: patent publication US20260159815A1, “METHODS OF CULTURING CARDIAC CELLS AND USE OF CELLS FOR DISEASE MODELING” (Technion Research & Development Foundation Limited, priority 2023, published 2026)

Tested on: iPSC-derived cardiomyocytes
Assay: RT-qPCR of selected sarcomere genes (TNNI1, TNNI3)
Type: cell-based, human
Settings: Torin1 10 nM and 25 nM, maturation media groups (3 mM glucose)
Method: Gene expression (RT-qPCR): RNA was extracted from cells using […], then reverse transcribed to cDNA with the Iscript™ cDNA Synthesis Kit (Bio-Rad, US). The quantitative polymerase chain reaction was performed using the Lightcycler® 480 SYBR Green I Master (syber green) (Roche, Switzerland).
Cardiomyocyte maturation: hiPSCs were differentiated into cardiomyocytes as follows. On day 0, the hiPSC medium was replaced with CDM3 media supplemented with 6 μM CHIR99021 (R&D Systems, US) to induce differentiation toward a mesodermal fate. After 48 hours the same medium was use, supplemented with 2 μM of Wnt-C59 (Selleck Chemicals, US). After 48 hours, the medium was replaced with RPMI-B27-insulin (Thermo Fisher Scientific, US). On day 10, maturation process was started with the replacement of the medium with maturation media. This process continued for 14 days during which Torin1 was added only in the first 7 days. At the end of the process, several criteria were tested to characterize the maturation of the CMs and the other supporting cells. […]

## CCC(=O)N1CCN(c2ccc(-n3c(=O)ccc4cnc5ccc(-c6cnc7ccccc7c6)cc5c43)cc2C(F)(F)F)CC1 [Torin1]
  TNNI3 mRNA expression: trended toward increased expression of TNNI3 mRNA expression in a dose-dependent manner
